Measurements reported in PMC10108353, “Design and Pharmacological Characterization of α4β1 Integrin Cyclopeptide Agonists: Computational Investigation of Ligand Determinants for Agonism versus Antagonism” (Journal of Medicinal Chemistry, 2023).

Assays:
α4β1 integrin [1] = target: T1, α4β1 integrin (Homo sapiens, UniProt P05556+P13612); assay: Jurkat E6.1 cell adhesion to FN; conditions: for agonist or antagonist behaviour, FN/Jurkat E6.1 α4β1: agonist = adhesion index >1, antagonist = adhesion index <1
Target sequence in this assay (P05556 21-798, one chain of several): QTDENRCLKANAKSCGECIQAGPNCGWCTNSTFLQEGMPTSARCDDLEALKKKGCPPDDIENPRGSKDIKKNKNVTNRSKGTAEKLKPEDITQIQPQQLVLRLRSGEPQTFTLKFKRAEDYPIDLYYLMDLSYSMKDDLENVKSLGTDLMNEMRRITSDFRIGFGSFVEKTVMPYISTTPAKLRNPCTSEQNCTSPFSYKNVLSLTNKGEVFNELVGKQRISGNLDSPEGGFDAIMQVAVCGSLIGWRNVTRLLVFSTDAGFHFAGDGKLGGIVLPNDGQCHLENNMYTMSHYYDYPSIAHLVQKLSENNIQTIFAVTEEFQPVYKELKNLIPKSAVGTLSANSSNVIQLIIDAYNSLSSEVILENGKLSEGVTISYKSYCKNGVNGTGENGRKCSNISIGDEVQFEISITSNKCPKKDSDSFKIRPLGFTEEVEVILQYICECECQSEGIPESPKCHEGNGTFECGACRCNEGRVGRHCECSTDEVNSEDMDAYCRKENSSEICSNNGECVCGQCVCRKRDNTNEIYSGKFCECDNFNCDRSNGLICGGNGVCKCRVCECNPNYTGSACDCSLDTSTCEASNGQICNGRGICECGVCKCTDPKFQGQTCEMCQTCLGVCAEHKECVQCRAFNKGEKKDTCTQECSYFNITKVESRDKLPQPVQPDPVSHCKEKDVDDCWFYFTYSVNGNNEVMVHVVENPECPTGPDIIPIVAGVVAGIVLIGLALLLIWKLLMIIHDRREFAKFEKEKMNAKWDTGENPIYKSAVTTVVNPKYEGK
Experimental: (§2) Cells were seeded in 96-well plates coated with the specific natural human recombinant ligands (Table 1) and allowed to adhere in the presence of increasing concentrations (10^–10 to 10^–4 M) of the synthesized CPPs before the determination of the number of adherent cells (as described in Experimental Section).
(§3) For adhesion assays on Jurkat E6.1, RPMI8866, or HL60 cells, black 96-well plates were coated overnight at 4 °C with VCAM-1 or ICAM-1 or MAdCAM-1 (5 μg/mL) or Fg (10 μg/mL). The cells were counted, stained with CellTracker green CMFDA (12.5 μM, 30 min at 37 °C, Life Technologies), and after three washes, were preincubated with increasing concentrations of new CPP (10^–10 to 10^–4 M) or with the vehicle (methanol) for 30 min at 37 °C. Then cells were plated (500 000/well) on coated wells and incubated for 30 min at 37 °C. After three washes, adhered cells were lysed with 0.5% Triton X-100 in PBS (30 min at 4 °C) and fluorescence was measured (Ex485 nm/Em535 nm) in an EnSpire Multimode Plate Reader (PerkinElmer, Waltham, MA). For adhesion assays mediated by α5β1 integrin, 96-well plates were coated by passive adsorption with FN (10 μg/mL) overnight at 4 °C. K562 cells were counted and preincubated with various concentrations of the peptides or with the vehicle (methanol) for 30 min at RT. Afterward, the cells were plated (50 000 cells/well) and incubated at RT for 1 h. The wells were then washed with 1% BSA in PBS (phosphate-buffered saline) to take off nonadherent cells, and 50 μL of hexosaminidase substrate was added; after addition of 100 μL of stopping solution, the plates were read at 405 nm. In both types of adhesion assay, the number of adherent cells was determined by comparison with a standard curve made in the same plate. Experiments were carried out in quadruplicate and repeated at least three times.
(§4) Jurkat E6.1 (expressing α4β1 and αLβ2 integrin), K562 (expressing α5β1 integrin) and HL60 (expressing αMβ2 integrin) cell lines were purchased from ATCC (Rockville, MD, USA); these cells were routinely cultured in RPMI-1640 (Life Technologies) supplemented with glutamine and 10% FBS.
(§5) Cells were grown at 37 °C under 5% CO2 humidified atmosphere.

αMβ2 integrin = αMβ2 integrin (Homo sapiens, UniProt P05107+P11215); assay: HL60 cell adhesion to fibrinogen (Fg); format: cell-based; conditions: read-out: IC50 for antagonists, Fg/HL60 αMβ2
Chain of αMβ2 integrin (P05107 23-769, other chains not shown): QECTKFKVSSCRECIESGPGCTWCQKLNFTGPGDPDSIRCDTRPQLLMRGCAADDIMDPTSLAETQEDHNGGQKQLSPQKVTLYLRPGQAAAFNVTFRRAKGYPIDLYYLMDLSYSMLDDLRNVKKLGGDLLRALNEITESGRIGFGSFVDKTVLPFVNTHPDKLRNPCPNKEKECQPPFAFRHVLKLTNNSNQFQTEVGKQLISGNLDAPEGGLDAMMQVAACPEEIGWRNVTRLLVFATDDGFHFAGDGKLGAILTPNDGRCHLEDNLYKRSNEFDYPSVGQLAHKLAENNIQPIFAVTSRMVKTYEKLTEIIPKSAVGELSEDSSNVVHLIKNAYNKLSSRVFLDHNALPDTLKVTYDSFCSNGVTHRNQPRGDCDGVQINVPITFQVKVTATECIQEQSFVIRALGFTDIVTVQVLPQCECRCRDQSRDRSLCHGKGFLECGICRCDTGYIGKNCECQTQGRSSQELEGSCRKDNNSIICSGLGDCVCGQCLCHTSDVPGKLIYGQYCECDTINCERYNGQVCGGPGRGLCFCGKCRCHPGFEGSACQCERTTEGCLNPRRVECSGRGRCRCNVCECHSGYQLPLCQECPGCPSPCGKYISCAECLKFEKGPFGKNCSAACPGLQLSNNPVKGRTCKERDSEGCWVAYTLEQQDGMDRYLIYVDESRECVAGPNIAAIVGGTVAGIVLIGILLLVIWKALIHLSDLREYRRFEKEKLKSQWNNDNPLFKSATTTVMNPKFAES
Text: (§1) mediated Jurkat cell adhesion to FN.

α4β1 integrin [2] = target: T1, α4β1 integrin; assay: Competitive solid-phase binding assay, purified α4β1 / FN; set-up: purchased R&D Systems; conditions: mean ± SD, three experiments in triplicate, read-out: Binding affinity IC50, α4β1/FN
Experimental: For the evaluation of binding affinity to purified α4β1, αMβ2, and α4β7 integrins, competitive solid-phase ligand binding assays were performed as follows. […] Afterward, each well was washed and blocked for 1 h at RT. Purified integrins (α4β1: 0.5 μg/mL; α4β7: 0.5 μg/mL; αMβ2: 0.5 μg/mL; R&D Systems) were preincubated with serial dilutions of new compounds (10^–4 – 10^–10 M) for 30 min at RT and then plated into coated wells for 1 h at RT. After two washes, primary antibody (for α4β1 and α4β7: rabbit anti-α4, Abcam, 1:100 dilution; for αMβ2: rabbit anti-αM, Abcam, 1:100 dilution) was added and incubated for 1 h at RT. The plate was washed twice and then was incubated with anti-rabbit AlexaFluor488 secondary antibody (1:400 dilution, ThermoFischer Scientific) for 1 h at RT. After washing three times, fluorescence was measured as described in the previous section.
Target sequence in this assay (P05556 21-728 limits assumed, one chain of several): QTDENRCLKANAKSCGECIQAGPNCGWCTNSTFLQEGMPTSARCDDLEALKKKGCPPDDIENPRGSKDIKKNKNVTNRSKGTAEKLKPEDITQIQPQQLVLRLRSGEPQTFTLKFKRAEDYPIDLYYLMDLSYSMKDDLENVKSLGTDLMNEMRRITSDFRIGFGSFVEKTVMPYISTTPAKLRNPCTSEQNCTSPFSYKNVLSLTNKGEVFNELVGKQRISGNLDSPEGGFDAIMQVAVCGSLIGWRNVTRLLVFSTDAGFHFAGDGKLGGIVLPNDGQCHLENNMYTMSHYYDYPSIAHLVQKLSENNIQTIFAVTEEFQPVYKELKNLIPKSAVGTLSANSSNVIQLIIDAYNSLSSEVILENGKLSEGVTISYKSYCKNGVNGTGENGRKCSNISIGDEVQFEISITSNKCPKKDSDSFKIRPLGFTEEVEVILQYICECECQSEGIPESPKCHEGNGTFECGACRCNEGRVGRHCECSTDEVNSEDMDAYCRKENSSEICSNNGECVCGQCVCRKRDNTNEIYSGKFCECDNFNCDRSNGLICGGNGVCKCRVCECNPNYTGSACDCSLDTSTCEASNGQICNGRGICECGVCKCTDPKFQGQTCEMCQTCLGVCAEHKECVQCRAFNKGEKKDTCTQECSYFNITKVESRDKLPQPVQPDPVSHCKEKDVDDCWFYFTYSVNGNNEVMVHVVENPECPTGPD

α4β7 integrin = target: T2, α4β7 integrin (Homo sapiens, UniProt P13612+P26010); assay: cell-based; format: cell-based; conditions: for IC50: reduction of cell adhesion, >5000 = inactive compounds (IC50/EC50), read-out: IC50 for antagonists, MAdCAM-1/RPMI8866 α4β7
T2 construct: RPMI8866 cells expressing α4β7 integrin to the ligand MAdCAM-1; endogenous in cells; host or cells: RPMI8866
T2 sequence (P13612 34-1032): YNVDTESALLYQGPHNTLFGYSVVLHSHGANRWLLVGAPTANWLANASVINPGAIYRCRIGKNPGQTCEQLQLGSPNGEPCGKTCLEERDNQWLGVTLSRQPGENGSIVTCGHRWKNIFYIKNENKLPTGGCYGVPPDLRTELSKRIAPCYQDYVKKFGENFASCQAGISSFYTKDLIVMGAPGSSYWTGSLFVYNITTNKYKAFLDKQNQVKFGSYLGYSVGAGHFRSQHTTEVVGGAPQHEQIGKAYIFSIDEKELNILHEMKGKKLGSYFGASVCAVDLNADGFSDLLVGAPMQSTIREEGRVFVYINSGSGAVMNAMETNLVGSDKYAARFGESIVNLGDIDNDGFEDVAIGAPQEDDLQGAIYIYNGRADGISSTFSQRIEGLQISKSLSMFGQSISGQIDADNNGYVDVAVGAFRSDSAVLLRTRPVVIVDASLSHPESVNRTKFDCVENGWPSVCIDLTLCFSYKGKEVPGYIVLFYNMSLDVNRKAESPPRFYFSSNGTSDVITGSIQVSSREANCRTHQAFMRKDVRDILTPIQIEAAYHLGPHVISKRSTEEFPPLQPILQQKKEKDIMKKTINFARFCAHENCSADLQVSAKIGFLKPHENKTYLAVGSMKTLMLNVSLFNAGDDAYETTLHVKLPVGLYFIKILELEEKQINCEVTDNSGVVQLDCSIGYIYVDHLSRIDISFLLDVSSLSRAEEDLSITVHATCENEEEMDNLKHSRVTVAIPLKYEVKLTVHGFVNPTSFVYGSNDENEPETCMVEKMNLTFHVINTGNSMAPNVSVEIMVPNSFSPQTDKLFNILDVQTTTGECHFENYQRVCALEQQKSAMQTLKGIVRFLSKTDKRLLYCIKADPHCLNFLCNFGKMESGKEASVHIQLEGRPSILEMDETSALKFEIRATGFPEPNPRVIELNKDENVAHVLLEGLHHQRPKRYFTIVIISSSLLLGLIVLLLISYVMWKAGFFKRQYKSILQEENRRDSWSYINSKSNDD
T2 sequence (P26010 20-798): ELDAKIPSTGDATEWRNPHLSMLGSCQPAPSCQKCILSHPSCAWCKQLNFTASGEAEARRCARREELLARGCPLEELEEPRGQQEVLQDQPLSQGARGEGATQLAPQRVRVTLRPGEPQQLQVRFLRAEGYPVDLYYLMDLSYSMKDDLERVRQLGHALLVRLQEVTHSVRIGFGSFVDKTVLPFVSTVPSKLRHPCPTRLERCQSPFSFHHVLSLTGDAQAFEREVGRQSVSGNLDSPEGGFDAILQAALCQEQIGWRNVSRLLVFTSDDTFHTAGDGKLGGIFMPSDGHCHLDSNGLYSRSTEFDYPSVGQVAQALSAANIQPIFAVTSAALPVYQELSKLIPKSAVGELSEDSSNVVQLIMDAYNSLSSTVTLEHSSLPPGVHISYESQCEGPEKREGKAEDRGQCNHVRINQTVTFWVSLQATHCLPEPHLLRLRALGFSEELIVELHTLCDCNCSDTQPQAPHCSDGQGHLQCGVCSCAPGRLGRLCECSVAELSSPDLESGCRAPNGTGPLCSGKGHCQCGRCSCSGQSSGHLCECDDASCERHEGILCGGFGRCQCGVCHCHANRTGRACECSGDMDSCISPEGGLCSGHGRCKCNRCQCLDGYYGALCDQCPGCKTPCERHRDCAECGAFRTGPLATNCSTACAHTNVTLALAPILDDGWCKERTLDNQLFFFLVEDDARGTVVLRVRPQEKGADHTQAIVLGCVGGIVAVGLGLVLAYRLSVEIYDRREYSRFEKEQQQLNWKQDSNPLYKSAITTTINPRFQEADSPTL
Text: as §1

αLβ2 integrin = αLβ2 integrin (Homo sapiens, UniProt P05107+P20701); assay: Competitive solid-phase binding assay, purified αLβ2 / ICAM-1; conditions: read-out: Binding affinity IC50, αLβ2/ICAM-1
Chain of αLβ2 integrin (P20701 26-1170): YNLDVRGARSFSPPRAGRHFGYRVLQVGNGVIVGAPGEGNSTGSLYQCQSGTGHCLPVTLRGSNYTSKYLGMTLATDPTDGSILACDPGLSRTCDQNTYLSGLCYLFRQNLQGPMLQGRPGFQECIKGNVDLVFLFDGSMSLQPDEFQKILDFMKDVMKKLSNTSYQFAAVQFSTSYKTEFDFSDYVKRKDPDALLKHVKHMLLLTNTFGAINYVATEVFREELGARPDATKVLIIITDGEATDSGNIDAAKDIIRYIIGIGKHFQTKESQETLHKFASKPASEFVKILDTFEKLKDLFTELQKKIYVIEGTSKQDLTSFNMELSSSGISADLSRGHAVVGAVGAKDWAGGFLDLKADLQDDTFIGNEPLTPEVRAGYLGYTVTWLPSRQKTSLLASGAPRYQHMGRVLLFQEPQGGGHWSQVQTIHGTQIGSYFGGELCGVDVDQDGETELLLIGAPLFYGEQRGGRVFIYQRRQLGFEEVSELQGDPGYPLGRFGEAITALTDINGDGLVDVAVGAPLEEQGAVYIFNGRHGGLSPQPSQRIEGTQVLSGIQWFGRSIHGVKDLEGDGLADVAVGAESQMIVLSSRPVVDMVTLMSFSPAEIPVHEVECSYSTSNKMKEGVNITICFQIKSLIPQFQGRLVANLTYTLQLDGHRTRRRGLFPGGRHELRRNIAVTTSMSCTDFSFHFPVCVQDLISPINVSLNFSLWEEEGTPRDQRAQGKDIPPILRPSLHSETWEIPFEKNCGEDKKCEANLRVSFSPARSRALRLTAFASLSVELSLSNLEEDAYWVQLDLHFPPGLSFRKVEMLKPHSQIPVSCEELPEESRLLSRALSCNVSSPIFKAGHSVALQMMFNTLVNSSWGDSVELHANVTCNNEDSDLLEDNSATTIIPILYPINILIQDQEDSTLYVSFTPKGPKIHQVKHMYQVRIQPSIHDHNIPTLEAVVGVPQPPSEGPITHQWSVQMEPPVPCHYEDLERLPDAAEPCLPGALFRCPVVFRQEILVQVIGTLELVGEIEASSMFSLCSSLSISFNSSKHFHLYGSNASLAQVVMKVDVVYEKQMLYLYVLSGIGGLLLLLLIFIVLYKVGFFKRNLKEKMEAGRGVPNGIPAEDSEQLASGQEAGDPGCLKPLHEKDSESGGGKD
Chain of αLβ2 integrin (P05107 23-769): as the sequence (P05107 23-769, other chains not shown) above
Experimental: Solid-phase ligand binding assays on purified integrin were conducted as previously described[34] with the following modifications. […] The following day, wells were blocked with TSB buffer (20 mM Tris-HCl, 150 mM NaCl, 1 mM CaCl2, 1 mM MgCl2, 1 mM MnCl2, pH 7.5, 1% BSA) for 1 h at room temperature. Purified α5β1 (10 μg/mL) or αLβ2 (7 μg/mL) was incubated with the new synthesized compounds, at different concentrations (10^–4 to 10^–10 M), in coated wells for 1 h at RT. Then, after three washes with PBST buffer, primary antibody (anti-α5β1, BD Bioscience, 1:100 dilution or anti-αL, Abcam, 1:200 dilution) was added for 1 h at RT. Then antirabbit AlexaFluor488-secondary antibody (ThermoFisher Scientific, 1:400 dilution) was added after three washes with PBST buffer and incubated 1 h at room temperature.

α4β1 integrin [3] = target: T1, α4β1 integrin; assay: Jurkat E6.1 cell adhesion to VCAM-1
Target sequence in this assay (P05556 21-798, one chain of several): as the sequence (P05556 21-798, one chain of several) above
Experimental: as §2, §3, §4, §5

[4] = agonist = adhesion index >1, antagonist = adhesion index <1

SMILES	agonist or antagonist behaviour, FN/Jurkat E6.1 α4β1 (α4β1 integrin [1])	IC50 (αMβ2 integrin) [µM]	IC50 (α4β1 integrin [2]) [µM]	IC50 (α4β7 integrin) [µM]	IC50 (αLβ2 integrin) [µM]	EC50 (α4β1 integrin [1]; read-out: EC50 for agonists, FN/Jurkat E6.1 α4β1, increase of cell adhesion, mean ± SD, three experiments in quadruplicate) [µM]	agonist or antagonist behaviour, MAdCAM-1/RPMI8866 α4β7 (α4β7 integrin; [4])	agonist or antagonist behaviour, VCAM-1/Jurkat E6.1 α4β1 (α4β1 integrin [3]; [4])	EC50 (α4β1 integrin [3]; read-out: EC50 for agonists, VCAM-1/Jurkat E6.1 α4β1, increase of cell adhesion, mean ± SD) [µM]
Cc1ccccc1NC(=O)N1C(=O)CC1CC(=O)NCC(=O)O (centres unmarked) [1b]	completely ineffective	> 5	> 5	> 5	> 5	–	–	–	–
Cc1ccccc1NC(=O)N1C(=O)CC1CC(=O)O (centres unmarked) [1a]	agonist	> 5	0.0133 ± 0.0063	> 5	> 5	0.0156 ± 0.0015	inactive	agonist	0.013 ± 0.0008
